Several values for one entry are separate records, joined by “and”; a condition that tells them apart may be missing. Equal values may be shown once.
Experiments:
SPAK–WNK1 interaction = test system: T1, SPAK–WNK1 interaction; assay: SPAK antibody pull-down / co-immunoprecipitation of WNK1 from HEK-293 cell lysates; assay type: binding, human; settings: Fig S6
T1 construct: endogenous in cells; host or cells: HEK-293
Experimental: Supplemental Fig. 6 Evidence that SPAK associates with WNK1, and interaction is disrupted by ZT-1a and its analogs. Non-transfected HEK293 cell lysates were incubated with the RFQV peptide […]
ZT-1a for 30 min on ice and subjected to SPAK antibody immunoprecipitation. Immunoprecipitates were subjected to immunoblot probed with antibody to total WNK1 and antibody to total SPAK. Left panels: representative immunoblots. Right panels, summarized data quantitated by densitometry (n=3, means ± SEM; **,

[1] = test system: mouse model of ischemic stroke (tMCAO); assay: Infarct volume and hemispheric swelling (TTC) 24 h after tMCAO; assay type: in vivo; settings: Fig 7b, individual mice

| Compound | WNK1 co-immunoprecipitated with SPAK (band quantification) (SPAK–WNK1 interaction; 10 uM) | WNK1 co-immunoprecipitated with SPAK (band quantification) (SPAK–WNK1 interaction; 30 uM) | WNK1 co-immunoprecipitated with SPAK (band quantification) (SPAK–WNK1 interaction; 100 uM) | WNK1 co-immunoprecipitated with SPAK (band quantification) (SPAK–WNK1 interaction; 1000 uM) | Hemisphere swelling (%) ([1]; group ZT 2.5) | Infarct volume (mm3) ([1]; group ZT 2.5) | Hemisphere swelling (%) ([1]; group ZT 5.0) | Infarct volume (mm3) ([1]; group ZT 5.0) |
| --- | --- | --- | --- | --- | --- | --- | --- | --- |
| Cc1cc(C(C#N)c2ccc(Cl)cc2)c(Cl)cc1NC(=O)c1cc(I)cc(I)c1O (centres unmarked) [Closanel] | 0.416 and 0.33 and 0.3682 and 0.389 | 0.353 and 0.208 and 0.256 and 0.231 | 0.179 and 0.139 and 0.1611 and 0.153 | 0.036 and 0.031 and 0.0232 and 0.027 |  |  |  |  |
| Cc1cc(C(C#N)c2ccc(Cl)cc2)c(Cl)cc1NC(=O)c1cc(Cl)ccc1O (centres unmarked) [ZT] |  |  |  |  | 11.06% and 15.88% and 13.11% and 15.27% and 16.5% and 21.75% | 29.36 mm3 and 90.65 mm3 and 33.9 mm3 and 61.9 mm3 and 46.64 mm3 and 99.8 mm3 | 16.2% and 16.76% and 19.99% and 9.25% and 8.47% and 7.57% and 9.24% and 4.63% and 10.39% and 8.48% and 13.8% and 7.91% | 48.74 mm3 and 86.87 mm3 and 49.93 mm3 and 31.43 mm3 and 42.1 mm3 and 27.75 mm3 and 25.29 mm3 and 24.11 mm3 and 27.25 mm3 and 37.2 mm3 and 90 mm3 and 33.39 mm3 |
